The subject of one experiment is Influenza A (Taiwan). As to the kind of experiment: Inhibition of influenza A cytopathic effect (clumping) in MDCK cells. It is filed as cell-based, Influenza A virus (A/Taiwan strain). The settings on record: Influenza A virus, 24 h, 50% reduction in percent clumped cells, read-out: ED50 Influenza A (Taiwan). How it is done:
With virus infection, a cytopathic effect characterized by cell clumping is observed. For each compound tested, drug concentrations of 0.1, 1, 10, 25, and 100 μg/ml were added to cultured cells at the time of virus infection, as detailed in Examples 9 and 11. […] The inhibition of clumping was plotted as a function of drug concentration, to determine the dose effective to produce a 50% reduction in the percent clumped cells, measured with respect to control (no drug treatment).
Assays to assess the antiviral activity of KY- and Y-compounds in tissue culture were performed in 96-well flat-bottom tissue culture plates (Falcon 307), using conditions similar to those used in the cytotoxicity assays described above. In these assays, compound was tested in quadruplicate by serially diluting the compound in 2% FCS-MEM using serial two-fold dilutions (0.05 ml/well). A 0.05 ml volume of the appropriate virus containing approximately 100 median tissue culture infectious doses (TCID50) was then added to all wells except those set aside as antiviral and tissue control wells. Next, approximately 3×10^3 HEp2 cells (0.1 ml) were added to each well. Control wells containing antiviral and no virus (antiviral control), containing virus but no antiviral (virus control), or containing medium without virus or antiviral (tissue control), were included in each test. The challenge virus was then back titrated. All assay plates were incubated at 35° C. for 5 to 7 days in a 5% CO2 incubator.
The anti-influenza A activity of KY compounds was evaluated as described in Example 9, except that MDCK cells (kidney cell line) was used for infection in vitro by influenza virus (strain A/Taiwan).
In general terms: Damage to the host cells serves as the signal in cytopathic effect assays.

The test system of another experiment is HSV-1 and HSV-2. As to the kind of experiment: Viral yield inhibition, HeLa cells, plaque count on Vero cells. Conditions: up to 10 μg/ml, FIGS. 29A and 29B, depending on drug and virus.
The next experiment has as its system HSV-1. As to the kind of experiment: Plaque reduction assay, HSV-1, Vero cells. Type of experiment: cell-based, HSV-1 (Kos-1). Conditions: Human alphaherpesvirus 1, Vero, plaque reduction, Vero cells. A general note: In a plaque reduction assay, fewer plaques than in the control indicate reduced infectivity or spread.
The test system of the next experiment is RSV. As to the kind of experiment: Inhibition of RSV cytopathic effect in HEp2 cells. It is filed as cell-based. The settings on record: human respiratory syncytial virus, HEp-2, read-out: ED50 RSV.

≈ marks a conversion by molar mass, not a printed value.

Broadly, the IC50 is the point on the concentration scale where inhibition reaches its midpoint. Lower therefore signals greater potency.

Description for HSV-1 and HSV-2: The ability of selected naphthalene-subunit compounds to inhibit HSV-1 and HSV-2 viral yields at selected drug concentrations up to 10 μg/ml was assessed in the viral inhibition assay described in Example 7. Briefly, cultured Hela cells were exposed to serially diluted KY compound and virus, allowed to grow for 24 hours, then freeze/thawed 3 times to release virus particles. Vero cells were infected serial dilutions of the viral lysates were assayed for plaque counts as described in Example 6.
1×10^6 HeLa S3 were plated in 25 T flasks in 5 ml RPMI-1640+5% FCS+P/S. 24 hours later, the medium was aspirated and replaced with 6×10^6 PFU HSV-1 or HSV-2, and serial dilutions of selected KY compounds, at 10, 5, 2.5, 1.25, and 0.625 μg/ml drug. After growth at 37° C. for 24 hours in 2 ml of RPMI-1640 containing 2% FCS and P/S, the cells were frozen at -70° C. until the time for titration. The cells were freeze/thawed 3 times to release virus from the cells, and serially diluted 10 fold.
1×10^5 Vero cells were plated in each well of 24 well multi-dish in 1 ml RPMI-1640+5% FCS+P/S+0.1% methylcellulose (15 cps). On the second day, after removal of the medium, the 10 fold serially diluted virus in 100 μl was added in duplicate. […] The plaques formed were counted and the titer was calculated from the fold of dilutions.

Take `O=S(=O)(O)c1cc2cc(S(=O)(=O)O)c3c(O)c2c(O)c1Cc1c(S(=O)(=O)O)cc2cc(S(=O)(=O)O)c(c(O)c2c1O)Cc1c(S(=O)(=O)O)cc2cc(S(=O)(=O)O)c(c(O)c2c1O)Cc1c(S(=O)(=O)O)cc2cc(S(=O)(=O)O)c(c(O)c2c1O)C3` [KY-1]: the EC50 in the experiment with Influenza A (Taiwan) was above 188 µg/mL; with RSV, 0.19 µg/mL (≈ 0.143 µM). Also, in the experiment on HSV-1 and HSV-2, the “dose dependent drop in viral yield” value is on record as 3-5 orders of magnitude. This compound registered an IC50 in the experiment on HSV-1 of 2.7 µg/mL (≈ 2.03 µM).

Values taken from patent publication US5441983A, “Treatment of infection by enveloped virus with calix(N)arene compounds” (Genelabs Incorporated, priority 1992, dated 1995).
